Assay results published in patent US10577378B2, “EIF4A-inhibiting compounds and methods related thereto” (eFFECTOR Therapeutics, Inc., priority 2015, dated 2020).
pIC50: −log10 of the molar value. Counter-ions that a name gives are not always drawn. Like-named read-outs stand apart in the source and are kept apart here.

System: MDA-MB-231 human breast cancer cells
Experiment: Cell proliferation assay (CellTiter-Glo, 72 hours treatment)
Type: cell-based
Settings: MDA-MB-231 cells, 72 hours at 37° C., CellTiter-Glo, read-out: MDA-MB-231 cell proliferation assay (IC50)
How it was run: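 IC50 categories: under 100 nM +++, 100–1000 nM ++, above 1000 nM +, derived by sigmoidal curve fitting of CellTiter-Glo luminescence. Cells plated at 2,500 per well, dosed the following day and exposed 72 h at 37 °C versus DMSO control.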

| Compound | pIC50 (Homo sapiens) | pIC50 |
| --- | --- | --- |
| COc1nc(C#N)cc2c1[C@]1(O)[C@H](O)[C@H](CN(C)C)[C@@H](c3ccccc3)[C@]1(c1ccc(Cl)cc1)O2 (single isomer, unassigned) [145F] | > 7.00 | – |
| COc1nc(C#N)cc2c1[C@]1(O)[C@H](O)[C@H](CN(C)C)[C@@H](c3ccccc3)[C@]1(c1ccc(C(F)(F)F)cc1)O2 (single isomer, unassigned) [147F] | > 7.00 | – |
| COc1nc(C#N)cc2c1[C@]1(O)[C@H](O)[C@H](CN3CCOCC3)[C@@H](c3ccccc3)[C@]1(c1ccc(C#N)cc1)O2 (single isomer, unassigned) [151F] | > 7.00 | – |
| COc1nc(Cl)cc2c1[C@]1(O)[C@H](O)[C@H](CN3CCN(C)CC3)[C@@H](c3ccccc3)[C@]1(c1ccc(C#N)cc1)O2 (single isomer, unassigned) [198Fa] | > 7.00 | – |
| COc1nc(C#N)cc2c1[C@]1(O)[C@H](O)[C@H](CN3CCC3)[C@@H](c3ccccc3)[C@]1(c1ccc(C#N)cc1)O2 (single isomer, unassigned) [212F] | > 7.00 | – |
| COc1cc2c(c(OC)n1)[C@]1(O)[C@H](O)[C@H](CN(C)C)[C@@H](c3ccccc3)[C@]1(c1ccc(C#N)cc1)O2 (single isomer, unassigned) [231F] | > 7.00 | – |
| COc1cncc2c1[C@]1(O)[C@H](O)[C@H](CN(C)CC(F)(F)F)[C@@H](c3ccccc3)[C@]1(c1ccc(C#N)cc1)O2 (single isomer, unassigned) [233F] | 6.00 to 7.00 | – |
| COc1cncc2c1[C@]1(O)[C@H](O)[C@H](CN(C)C(C)(C)C)[C@@H](c3ccccc3)[C@]1(c1ccc(C#N)cc1)O2 (single isomer, unassigned) [243F] | 6.00 to 7.00 | – |
| COc1cncc2c1[C@]1(O)[C@H](O)[C@H](CN(C)CCF)[C@@H](c3ccccc3)[C@]1(c1ccc(C#N)cc1)O2 (single isomer, unassigned) [248F] | > 7.00 | – |
| COc1cncc2c1[C@]1(O)[C@H](O)[C@H](CN(C)Cc3ccnn3C)[C@@H](c3ccccc3)[C@]1(c1ccc(C#N)cc1)O2 (single isomer, unassigned) [250F] | < 6.00 | – |
| COc1cncc2c1[C@]1(O)[C@H](O)[C@H](CN(C)CC(C)(C)O)[C@@H](c3ccccc3)[C@]1(c1ccc(C#N)cc1)O2 (single isomer, unassigned) [252F] | > 7.00 | – |
| COc1cncc2c1[C@]1(O)[C@H](O)[C@H](CNCC(C)(C)O)[C@@H](c3ccccc3)[C@]1(c1ccc(C#N)cc1)O2 (single isomer, unassigned) [254F] | > 7.00 | – |
| COc1cncc2c1[C@]1(O)[C@H](O)[C@H](CN(C)C)[C@@H](c3ccccc3)[C@]1(c1ccc(C)cc1)O2 (single isomer, unassigned) [256F] | > 7.00 | – |
| COc1cncc2c1[C@]1(O)[C@H](O)[C@H](CN3CCCCC3)[C@@H](c3ccccc3)[C@]1(c1ccc(C#N)cc1)O2 (single isomer, unassigned) [258F] | > 7.00 | – |
| COCCN(C)C[C@H]1[C@@H](O)[C@@]2(O)c3c(OC)cncc3O[C@@]2(c2ccc(C#N)cc2)[C@@H]1c1ccccc1 (single isomer, unassigned) [261F] | > 7.00 | – |
| COc1cncc2c1[C@]1(O)[C@H](O)[C@H](CN3[C@@H]4CC[C@H]3COC4)[C@@H](c3ccccc3)[C@]1(c1ccc(C#N)cc1)O2 (single isomer, unassigned) [265F] | 6.00 to 7.00 | – |

| Compound | pIC50 (Homo sapiens) | pIC50 |
| --- | --- | --- |
| COc1cncc2c1[C@]1(O)[C@H](O)[C@H](CN3[C@@H]4CCC[C@H]3CC4)[C@@H](c3ccccc3)[C@]1(c1ccc(C#N)cc1)O2 (single isomer, unassigned) [268F] | 6.00 to 7.00 | – |
| COc1cncc2c1[C@]1(O)[C@H](O)[C@H](CN(C)C)[C@@H](c3ccccc3)[C@]1(c1ccc(Cl)cc1)O2 (single isomer, unassigned) [272F] | > 7.00 | – |
| COc1cncc2c1[C@]1(O)[C@H](O)[C@H](CN3CC4CC(C3)O4)[C@@H](c3ccccc3)[C@]1(c1ccc(C#N)cc1)O2 (single isomer, unassigned) [274F] | 6.00 to 7.00 | – |
| COc1cncc2c1[C@]1(O)[C@H](O)[C@H](CN3CCC(F)(F)C3)[C@@H](c3ccccc3)[C@]1(c1ccc(C#N)cc1)O2 (single isomer, unassigned) [280F] | 6.00 to 7.00 | – |
| COc1cncc2c1[C@]1(O)[C@H](O)[C@H](CN3CCOCC3)[C@@H](c3ccccc3)[C@]1(c1ccc(C(F)(F)F)cc1)O2 (single isomer, unassigned) [282F] | 6.00 to 7.00 | – |
| COc1cncc2c1[C@]1(O)[C@H](O)C(CN3CCN(C)CC3)[C@@H](c3ccccc3)[C@]1(c1ccc(C(F)(F)F)cc1)O2 (single isomer, unassigned) [284F] | 6.00 to 7.00 | – |
| COc1cncc2c1[C@]1(O)[C@H](O)[C@H](CNCC(F)F)[C@@H](c3ccccc3)[C@]1(c1ccc(C(F)(F)F)cc1)O2 (single isomer, unassigned) [286F] | 6.00 to 7.00 | – |
| COc1cncc2c1[C@]1(O)[C@H](O)[C@H](CNC(C)(C)C)[C@@H](c3ccccc3)[C@]1(c1ccc(C#N)cc1)O2 (single isomer, unassigned) [290F] | 6.00 to 7.00 | – |
| CS(=O)(=O)[C@H]1[C@@H](O)[C@@]2(O)c3ncc(C#N)cc3O[C@@]2(c2ccc(C#N)cc2)[C@@H]1c1ccccc1 [86F, (5aR,6S,7R,8S,8aS)-5a-(4-cyanophenyl)-8,8a-dihydroxy-7-(methylsulfonyl)-6-phenyl-5a,7,8,8a-tetrahydro-6H-cyclopenta[4,5]furo[3,2-b]pyridine-3-carbonitrile] | < 6.00 | – |
| CN(C)C[C@H]1[C@@H](O)[C@@]2(O)c3ncc(Cl)cc3O[C@@]2(c2ccc(C#N)cc2)[C@@H]1c1ccccc1 [104F, 4-((5aR,6S,7S,8R,8aS)-3-chloro-7-((dimethylamino)methyl)-8,8a-dihydroxy-6-phenyl-6,7,8,8a-tetrahydro-5aH-cyclopenta[4,5]furo[3,2-b]pyridin-5a-yl)benzonitrile] | 6.00 to 7.00 | – |
| CN(C)C[C@H]1[C@@H](O)[C@@]2(O)c3ncc(C#N)cc3O[C@@]2(c2ccc(C#N)cc2)[C@@H]1c1ccccc1 [105F] | – | < 6.00 |
| COCCNC[C@H]1[C@@H](O)[C@@]2(O)c3c(OC)cncc3O[C@@]2(c2ccc(C#N)cc2)[C@@H]1c1ccccc1 [263F, 4-((4bS,5R,6S,7S,7aR)-4b,5-dihydroxy-4-methoxy-6-(((2-methoxyethyl)amino)methyl)-7-phenyl-4b,5,6,7-tetrahydro-7aH-cyclopenta[4,5]furo[2,3-c]pyridin-7a-yl)benzonitrile hydrochloride] | > 7.00 | – |
| COc1cncc2c1[C@]1(O)[C@H](O)[C@H](CN(C)Cc3cccnc3)[C@@H](c3ccccc3)[C@]1(c1ccc(C#N)cc1)O2 [278F, 4-((4bS,5R,6S,7S,7aR)-4b,5-dihydroxy-4-methoxy-6-((methyl(pyridin-3-ylmethyl)amino)methyl)-7-phenyl-4b,5,6,7-tetrahydro-7aH-cyclopenta[4,5]furo[2,3-c]pyridin-7a-yl)benzonitrile] | 6.00 to 7.00 | – |
| COc1nc(C#N)cc2c1[C@]1(O)[C@H](O)[C@H](CN3CC(F)(F)C3)[C@@H](c3ccccc3)[C@]1(c1ccc(C#N)cc1)O2 [288F, (5aR,6S,7S,8R,8aS)-5a-(4-cyanophenyl)-7-((3,3-difluoroazetidin-1-yl)methyl)-8,8a-dihydroxy-1-methoxy-6-phenyl-5a,7,8,8a-tetrahydro-6H-cyclopenta[4,5]furo[3,2-c]pyridine-3-carbonitrile] | > 7.00 | – |
| COc1cncc2c1[C@]1(O)[C@H](O)[C@H](CNCC(F)(F)F)[C@@H](c3ccccc3)[C@]1(c1ccc(C#N)cc1)O2 [291F, 4-((4bS,5R,6S,7S,7aR)-4b,5-dihydroxy-4-methoxy-7-phenyl-6-(((2,2,2-trifluoroethyl)amino)methyl)-4b,5,6,7-tetrahydro-7aH-cyclopenta[4,5]furo[2,3-c]pyridin-7a-yl)benzonitrile] | 6.00 to 7.00 | – |
